Molecules are shown by their SMILES.

Chain of FKBP12 (P62942 whole entry, species assumed): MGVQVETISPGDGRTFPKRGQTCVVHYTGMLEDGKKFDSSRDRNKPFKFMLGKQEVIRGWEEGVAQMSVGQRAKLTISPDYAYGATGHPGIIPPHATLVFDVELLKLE

One test deals with FKBP12 (Homo sapiens, UniProt P62942). The experiment in a line: rotamase inhibition assay (N-succinyl-Ala-Ala-Pro-Phe-p-nitroanilide, chymotrypsin-coupled). Format: biochemical. Particulars: @ 2.5 μM. As to the method:
In the rotamase inhibition assay, isomerization of an artificial substrate N-succinyl-Ala-Ala-Pro-Phe-p-nitroanilide is followed spectrophotometrically. The assay includes the cis form of the substrate, FKBP12, the compound being tested, and chymotrypsin. Chymotrypsin is able to cleave p-nitroaniline from the trans form of the substrate, but not from the cis form. Release of p-nitroaniline is measured spectrophotometrically. Using this assay, various amounts of the FKBP rotamase-inhibiting compounds of formula (I-a) or (I-b) were added to cis-N-succinyl-alanine-alanine-proline-phenylalanine-para-nitroaniline (Bachem, 3132 Kashiwa Street, Torrance, Calif. 90505) in the presence of FKBP12 and chymotrypsin. Spectrophotometric measurements of p-nitroaniline concentrations allowed estimation of the apparent Ki values, which are provided in Table 1 below.
For the compound `CCCC(CCC)C(=O)OC[C@H](CN1CC2CCCC(C1=O)N2C(=O)C(=O)C(C)(C)CC)OCc1ccccc1` (some centres unmarked) [Compound 56], the inhibition (as a rule, the change of the read-out against control, counted positive when it falls) at 2.5 µM is 40%.

The same test, now with this note: Rotamase Ki(app).
`COc1cc(OC)cc(N2C=C3C4CCCC(C(=O)N3CC2=O)N4C(=O)C(=O)c2cc(OC)c(OC)c(OC)c2)c1` (centres unmarked) [Compound 142]: the Ki was 54 nM.

Still in this test, the particulars now being: apparent Ki; NI = no inhibition at the concentrations tested; read-out: Rotamase Ki(app).
For the compound `COc1cc(C(=O)C(=O)N2C3CCCC2C(=O)N(CCc2ccccc2)CC3)cc(OC)c1OC` (centres unmarked) [Compound 159, 1-(2-Oxo-3-phenethyl-3,10-diaza-bicyclo[4.3.1]dec-10-yl)-2-(3,4,5-trimethoxy-phenyl)-ethane-1,2-dione], the Ki was 760 nM. For `COCOCC(C)(C)C(=O)C(=O)N1C2CCCC1C(=O)N(CCCCc1ccccc1)C2` (centres unmarked) [Compound 63], the Ki was 3100 nM. The same measure, in the same setting: in the case of `CCC(C)(C)C(=O)C(=O)N1C2CCCC1C(=O)N(C[C@@H](CO)OCc1ccccc1)C2` (some centres unmarked) [Compound 59] it was 3800 nM; in that of `COc1ccc(OC[C@@H]2CC[C@H](N3CC4CCCC(C3=O)N4C(=O)C(=O)c3cc(OC)c(OC)c(OC)c3)C2)cc1` (some centres unmarked) [Compound 153], 520 nM. The same measure, in the same setting: in the case of `C=CCC(CC=C)C(=O)OC[C@H](CN1CC2CCCC(C1=O)N2C(=O)C(=O)c1cc(OC)c(OC)c(OC)c1)OCc1ccccc1` (some centres unmarked) [Compound 73] it was 63 nM; in that of `CCCC(CCC)C(=O)OC[C@H](CN1CC2CCCC(C1=O)N2C(=O)C(=O)c1cc(OC)c(OC)c(OC)c1)OCc1ccccc1` (some centres unmarked) [Compound 47], 200 nM; in that of `COCC(=O)OCC1(C(=O)C(=O)N2C3CCCC2C(=O)N(CCCCc2ccccc2)C3)CCCC1` (centres unmarked) [Compound 84], 134 nM. In the case of `CCC(=O)OC1(C(=O)C(=O)N2C3CCCC2C2=CN(C4CCCC4)C(=O)CN2C3=O)CCCC1` (centres unmarked) [Compound 144], the Ki is 1200 nM. The same measure, in the same setting: in the case of `COc1cc(C(=O)C(=O)N2C3CCCC2C(=O)N(CCCCc2ccccc2)C3)cc(OC)c1OC` (centres unmarked) [Compound 33] it was 227 nM; in that of `C=CCC(CC=C)C(=O)OC[C@@H](CN1CC2CCCC(C1=O)N2C(=O)C(=O)c1cc(OC)c(OC)c(OC)c1)OCc1ccccc1` (some centres unmarked) [Compound 76], 112 nM; in that of `COC[C@@H]1CC[C@@H](C)[C@](O)(C(=O)C(=O)N2C3CCCC2C(=O)N(Cc2ccc4ccccc4c2)C3)C1` (some centres unmarked) [Compound 138], 1300 nM. Same read-out and setting: for `COc1cc(OC)cc(N2C=C3C4CCCC(C(=O)N3CC2=O)N4C(=O)C(=O)C2(OC)CCCC2)c1` (centres unmarked) [Compound 151] the value was 530 nM. For `CC(=O)OCC1(C(=O)C(=O)N2C3CCCC2C(=O)N(CCCCc2ccccc2)C3)CCCC1` (centres unmarked) [Compound 62], the Ki amounted to 160 nM. Same read-out and setting: in the case of `COc1cc(OC)cc(N2C=C3C4CCCC(C(=O)N3CC2=O)N4C(=O)C(=O)C2(COC(C)=O)CCCC2)c1` (centres unmarked) [Compound 143] it was 190 nM; in that of `COC1(C(=O)C(=O)N2C3CCCC2C(=O)N(CCCCc2ccccc2)C3)CCCC1` (centres unmarked) [Compound 100], 627 nM. On the same count and under the same terms, in the case of `CCOC1C2CCCC(C(=O)N1Cc1ccc(OC)cc1)N2C(=O)C(=O)c1cc(OC)c(OC)c(OC)c1` (centres unmarked) [Compound 79] it was 700 nM; in that of `COc1cc(C(=O)C(=O)N2C3CCCC2C(=O)N([C@H]2CCC[C@@H]2OCc2ccccc2)C3)cc(OC)c1OC` (some centres unmarked) [Compound 72], 240 nM; in that of `CC(=O)OCC1(C(=O)C(=O)N2C3CCCC2C2=CN(CC4CC4)C(=O)CN2C3=O)CCCC1` (centres unmarked) [Compound 124], 380 nM.

For the compound `C=CCC(CC=C)C(=O)OC[C@H](CN1CC2CCCC(C1=O)N2C(=O)C(=O)C1(COC(C)=O)CCCC1)OCc1ccccc1` (some centres unmarked) [Compound 111], the Ki is 663 nM. For `COC(OC)C(=O)OC1(C(=O)C(=O)N2C3CCCC2C(=O)N(CCCCc2ccccc2)C3)CCCC1` (centres unmarked) [Compound 102], the Ki amounted to 690 nM.

Take `COc1cc(C(=O)C(=O)N2C3C=CN(CCCCc4ccccc4)C(=O)C2CCC3)cc(OC)c1OC` (centres unmarked) [Compound 162, 1-[2-Oxo-3-(4-phenyl-butyl)-3,10-diaza-bicyclo[4.3.1]dec-4-en-10-yl]-2-(3,4,5-trimethoxy-phenyl)-ethane-1,2-dione]: the Ki was 347 nM.
